ChEMBL document CHEMBL1165953, “Synthesis and biological evaluation of 4(5)-(6-methylpyridin-2-yl)imidazoles and -pyrazoles as transforming growth factor-beta type 1 receptor kinase inhibitors” (Bioorg Med Chem, 2010)
In brackets after ≈: the same amount, converted by molar mass.

Experiments:
[1] = Aqueous solubility in buffer solution at pH 1.2; assay type: physicochemical
[2] = Metabolic stability assessed as 3-((4-(2-hydroxyquinoxalin- 6-yl)-5-(6-methylpyridin-2-yl)-1H-imidazol-2-yl)methyl)benzamide or 3-((4-(3-hydroxyquinoxalin-6-yl)-5-(6-methylpyridin-2-yl)- 1H-imidazol-2-yl)methyl)benzamide) levels at 120 uM by HPLC analysis in presence human recombinant CYP2D6; assay type: ADME; settings: recombinant enzyme
[3] = Metabolic stability assessed as 3-((4-(2-hydroxyquinoxalin- 6-yl)-5-(6-methylpyridin-2-yl)-1H-imidazol-2-yl)methyl)benzamide or 3-((4-(3-hydroxyquinoxalin-6-yl)-5-(6-methylpyridin-2-yl)- 1H-imidazol-2-yl)methyl)benzamide) levels at 120 uM by HPLC analysis in presence human recombinant CYP2C19; assay type: ADME; settings: recombinant enzyme
[4] = Metabolic stability assessed as 3-((4-(2-hydroxyquinoxalin- 6-yl)-5-(6-methylpyridin-2-yl)-1H-imidazol-2-yl)methyl)benzamide or 3-((4-(3-hydroxyquinoxalin-6-yl)-5-(6-methylpyridin-2-yl)- 1H-imidazol-2-yl)methyl)benzamide) levels at 120 uM by HPLC analysis in presence human recombinant CYP3A4; assay type: ADME; settings: recombinant enzyme
[5] = Metabolic stability assessed as 3-((4-(2-hydroxyquinoxalin- 6-yl)-5-(6-methylpyridin-2-yl)-1H-imidazol-2-yl)methyl)benzamide or 3-((4-(3-hydroxyquinoxalin-6-yl)-5-(6-methylpyridin-2-yl)- 1H-imidazol-2-yl)methyl)benzamide) levels at 120 uM by HPLC analysis in presence human recombinant CYP2C8; assay type: ADME; settings: recombinant enzyme
[6] = Metabolic stability assessed as 3-((4-(2-hydroxyquinolin-6-yl)-5-(6-methylpyridin-2-yl)-1H-imidazol-2-yl)methyl)benzamide or 3-((4-(3-hydroxyquinolin-6-yl)-5-(6-methylpyridin-2-yl)-1H-imidazol-2-yl)methyl)benzamide levels at 120 uM by HPLC analysis in presence human recombinant CYP3A4; assay type: ADME; settings: recombinant enzyme
[7] = biological target: Platelet-derived growth factor receptor alpha (Homo sapiens, UniProt P16234); assay: Inhibition of PDGFRalpha
Platelet-derived growth factor receptor alpha, sequence (P16234 whole entry): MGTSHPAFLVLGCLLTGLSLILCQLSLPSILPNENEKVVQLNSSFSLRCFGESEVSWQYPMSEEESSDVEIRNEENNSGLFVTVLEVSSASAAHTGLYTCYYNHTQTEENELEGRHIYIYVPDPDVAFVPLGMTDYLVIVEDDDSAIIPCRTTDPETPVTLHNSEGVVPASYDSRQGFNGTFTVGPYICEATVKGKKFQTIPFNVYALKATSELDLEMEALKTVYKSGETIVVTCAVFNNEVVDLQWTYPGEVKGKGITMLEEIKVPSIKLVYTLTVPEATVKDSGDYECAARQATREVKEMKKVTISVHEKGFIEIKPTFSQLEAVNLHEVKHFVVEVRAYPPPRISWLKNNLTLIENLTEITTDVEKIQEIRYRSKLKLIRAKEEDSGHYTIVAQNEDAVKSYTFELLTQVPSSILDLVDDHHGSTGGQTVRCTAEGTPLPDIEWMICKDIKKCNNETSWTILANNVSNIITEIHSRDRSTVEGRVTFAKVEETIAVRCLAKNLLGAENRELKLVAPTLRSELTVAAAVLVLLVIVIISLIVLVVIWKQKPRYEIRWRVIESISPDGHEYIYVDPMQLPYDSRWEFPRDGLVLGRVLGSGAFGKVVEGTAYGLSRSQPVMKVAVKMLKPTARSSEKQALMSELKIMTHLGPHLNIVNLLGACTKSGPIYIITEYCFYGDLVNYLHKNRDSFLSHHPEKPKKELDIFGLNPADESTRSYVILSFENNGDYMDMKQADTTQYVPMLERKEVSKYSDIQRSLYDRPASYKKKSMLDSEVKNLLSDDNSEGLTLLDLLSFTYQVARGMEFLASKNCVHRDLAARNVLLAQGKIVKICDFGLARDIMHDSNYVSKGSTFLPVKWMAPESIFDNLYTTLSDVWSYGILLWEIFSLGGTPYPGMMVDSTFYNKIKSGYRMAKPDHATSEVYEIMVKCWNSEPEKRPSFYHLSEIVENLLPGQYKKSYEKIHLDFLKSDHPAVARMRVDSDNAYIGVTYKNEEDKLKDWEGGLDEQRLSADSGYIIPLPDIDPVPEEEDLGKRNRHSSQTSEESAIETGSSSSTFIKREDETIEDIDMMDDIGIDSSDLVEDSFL

[8] = biological target: Vascular endothelial growth factor receptor 3 (Homo sapiens, UniProt P35916); assay: Inhibition of VEGFR3
[9] = biological target: T1, Serine/threonine-protein kinase D1 (Homo sapiens, UniProt Q15139); assay: Inhibition of PKCmu
T1 sequence (Q15139 whole entry): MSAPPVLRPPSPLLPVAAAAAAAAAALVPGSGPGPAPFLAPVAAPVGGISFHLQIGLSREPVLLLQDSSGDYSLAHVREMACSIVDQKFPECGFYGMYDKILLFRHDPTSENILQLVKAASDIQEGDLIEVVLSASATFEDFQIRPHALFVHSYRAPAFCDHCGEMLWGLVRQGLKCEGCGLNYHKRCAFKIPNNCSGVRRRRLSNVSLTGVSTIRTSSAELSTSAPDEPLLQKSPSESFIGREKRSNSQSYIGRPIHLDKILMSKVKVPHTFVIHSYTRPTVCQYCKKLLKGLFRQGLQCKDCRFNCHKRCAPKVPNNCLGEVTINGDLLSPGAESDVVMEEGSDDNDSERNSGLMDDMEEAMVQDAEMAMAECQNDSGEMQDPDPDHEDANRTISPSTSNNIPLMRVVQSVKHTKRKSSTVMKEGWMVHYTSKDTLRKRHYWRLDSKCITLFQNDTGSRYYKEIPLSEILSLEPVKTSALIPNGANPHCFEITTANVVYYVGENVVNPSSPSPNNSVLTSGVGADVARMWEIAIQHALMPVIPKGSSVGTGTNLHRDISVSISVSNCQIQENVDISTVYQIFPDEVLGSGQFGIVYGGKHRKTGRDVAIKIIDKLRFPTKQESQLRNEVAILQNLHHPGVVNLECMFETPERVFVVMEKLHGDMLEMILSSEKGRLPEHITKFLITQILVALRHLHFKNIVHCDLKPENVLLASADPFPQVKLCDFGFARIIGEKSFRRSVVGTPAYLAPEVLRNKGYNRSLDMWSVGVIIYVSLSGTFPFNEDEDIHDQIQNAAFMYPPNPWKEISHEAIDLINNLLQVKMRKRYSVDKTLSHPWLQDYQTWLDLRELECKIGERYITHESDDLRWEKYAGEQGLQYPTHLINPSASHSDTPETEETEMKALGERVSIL

[10] = biological target: Vascular endothelial growth factor receptor 2 (Homo sapiens, UniProt P35968); assay: Inhibition of VEGFR2
Vascular endothelial growth factor receptor 2, sequence (P35968 whole entry): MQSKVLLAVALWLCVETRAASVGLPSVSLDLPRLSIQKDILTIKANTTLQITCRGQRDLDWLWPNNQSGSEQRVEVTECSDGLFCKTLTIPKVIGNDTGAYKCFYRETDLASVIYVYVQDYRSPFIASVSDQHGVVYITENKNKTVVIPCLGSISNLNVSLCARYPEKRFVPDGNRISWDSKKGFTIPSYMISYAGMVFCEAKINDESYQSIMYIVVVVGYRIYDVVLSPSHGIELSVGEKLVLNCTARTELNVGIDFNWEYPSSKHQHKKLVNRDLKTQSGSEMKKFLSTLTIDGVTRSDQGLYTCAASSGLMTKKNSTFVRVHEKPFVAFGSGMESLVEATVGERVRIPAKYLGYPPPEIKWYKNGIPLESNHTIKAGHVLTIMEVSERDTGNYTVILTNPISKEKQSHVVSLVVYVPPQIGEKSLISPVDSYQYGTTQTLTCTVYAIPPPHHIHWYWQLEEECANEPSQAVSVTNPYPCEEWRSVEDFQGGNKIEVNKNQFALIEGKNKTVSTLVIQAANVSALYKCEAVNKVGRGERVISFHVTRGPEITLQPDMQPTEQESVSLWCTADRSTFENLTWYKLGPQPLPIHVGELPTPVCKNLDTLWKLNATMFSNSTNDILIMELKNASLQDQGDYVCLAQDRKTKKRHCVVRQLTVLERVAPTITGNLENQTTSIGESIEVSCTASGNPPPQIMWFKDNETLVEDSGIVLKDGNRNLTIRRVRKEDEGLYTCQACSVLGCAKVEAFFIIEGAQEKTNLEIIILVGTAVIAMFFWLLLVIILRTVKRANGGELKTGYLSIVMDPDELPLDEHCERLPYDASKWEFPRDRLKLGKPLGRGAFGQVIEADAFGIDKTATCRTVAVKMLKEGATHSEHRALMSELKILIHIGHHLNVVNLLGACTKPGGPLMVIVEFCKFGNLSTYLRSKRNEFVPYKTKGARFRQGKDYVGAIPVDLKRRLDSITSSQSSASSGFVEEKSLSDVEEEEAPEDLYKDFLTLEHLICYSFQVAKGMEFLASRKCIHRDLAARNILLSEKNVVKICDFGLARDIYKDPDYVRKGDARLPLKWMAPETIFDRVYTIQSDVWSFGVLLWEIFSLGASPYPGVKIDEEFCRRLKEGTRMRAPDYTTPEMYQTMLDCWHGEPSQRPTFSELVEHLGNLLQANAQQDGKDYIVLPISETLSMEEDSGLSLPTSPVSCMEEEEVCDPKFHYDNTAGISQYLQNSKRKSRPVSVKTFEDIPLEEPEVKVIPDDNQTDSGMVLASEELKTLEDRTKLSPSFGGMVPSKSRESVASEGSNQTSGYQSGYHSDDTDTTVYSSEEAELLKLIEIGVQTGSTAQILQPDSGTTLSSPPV

[11] = biological target: T2, TGF-beta receptor type-1 (Homo sapiens, UniProt P36897)
T2 sequence (P36897 whole entry): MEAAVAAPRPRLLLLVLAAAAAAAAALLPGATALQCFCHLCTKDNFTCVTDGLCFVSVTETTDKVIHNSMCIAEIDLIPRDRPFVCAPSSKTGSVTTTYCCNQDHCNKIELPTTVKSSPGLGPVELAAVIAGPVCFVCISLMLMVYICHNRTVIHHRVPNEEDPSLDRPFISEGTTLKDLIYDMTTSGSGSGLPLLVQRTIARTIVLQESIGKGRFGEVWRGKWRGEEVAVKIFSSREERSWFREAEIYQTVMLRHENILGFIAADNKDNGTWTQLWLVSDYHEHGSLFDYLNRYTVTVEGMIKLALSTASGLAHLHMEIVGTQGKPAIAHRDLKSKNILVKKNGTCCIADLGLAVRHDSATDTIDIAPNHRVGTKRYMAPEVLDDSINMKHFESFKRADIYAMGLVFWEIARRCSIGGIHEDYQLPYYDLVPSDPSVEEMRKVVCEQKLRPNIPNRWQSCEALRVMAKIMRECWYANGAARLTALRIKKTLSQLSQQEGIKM
Description: Inhibition of human recombinant GST-fused ALK5 expressed in Sf9 cells

[12] = biological target: Vascular endothelial growth factor receptor 1 (Homo sapiens, UniProt P17948); assay: Inhibition of VEGFR1
Vascular endothelial growth factor receptor 1, sequence (P17948 whole entry): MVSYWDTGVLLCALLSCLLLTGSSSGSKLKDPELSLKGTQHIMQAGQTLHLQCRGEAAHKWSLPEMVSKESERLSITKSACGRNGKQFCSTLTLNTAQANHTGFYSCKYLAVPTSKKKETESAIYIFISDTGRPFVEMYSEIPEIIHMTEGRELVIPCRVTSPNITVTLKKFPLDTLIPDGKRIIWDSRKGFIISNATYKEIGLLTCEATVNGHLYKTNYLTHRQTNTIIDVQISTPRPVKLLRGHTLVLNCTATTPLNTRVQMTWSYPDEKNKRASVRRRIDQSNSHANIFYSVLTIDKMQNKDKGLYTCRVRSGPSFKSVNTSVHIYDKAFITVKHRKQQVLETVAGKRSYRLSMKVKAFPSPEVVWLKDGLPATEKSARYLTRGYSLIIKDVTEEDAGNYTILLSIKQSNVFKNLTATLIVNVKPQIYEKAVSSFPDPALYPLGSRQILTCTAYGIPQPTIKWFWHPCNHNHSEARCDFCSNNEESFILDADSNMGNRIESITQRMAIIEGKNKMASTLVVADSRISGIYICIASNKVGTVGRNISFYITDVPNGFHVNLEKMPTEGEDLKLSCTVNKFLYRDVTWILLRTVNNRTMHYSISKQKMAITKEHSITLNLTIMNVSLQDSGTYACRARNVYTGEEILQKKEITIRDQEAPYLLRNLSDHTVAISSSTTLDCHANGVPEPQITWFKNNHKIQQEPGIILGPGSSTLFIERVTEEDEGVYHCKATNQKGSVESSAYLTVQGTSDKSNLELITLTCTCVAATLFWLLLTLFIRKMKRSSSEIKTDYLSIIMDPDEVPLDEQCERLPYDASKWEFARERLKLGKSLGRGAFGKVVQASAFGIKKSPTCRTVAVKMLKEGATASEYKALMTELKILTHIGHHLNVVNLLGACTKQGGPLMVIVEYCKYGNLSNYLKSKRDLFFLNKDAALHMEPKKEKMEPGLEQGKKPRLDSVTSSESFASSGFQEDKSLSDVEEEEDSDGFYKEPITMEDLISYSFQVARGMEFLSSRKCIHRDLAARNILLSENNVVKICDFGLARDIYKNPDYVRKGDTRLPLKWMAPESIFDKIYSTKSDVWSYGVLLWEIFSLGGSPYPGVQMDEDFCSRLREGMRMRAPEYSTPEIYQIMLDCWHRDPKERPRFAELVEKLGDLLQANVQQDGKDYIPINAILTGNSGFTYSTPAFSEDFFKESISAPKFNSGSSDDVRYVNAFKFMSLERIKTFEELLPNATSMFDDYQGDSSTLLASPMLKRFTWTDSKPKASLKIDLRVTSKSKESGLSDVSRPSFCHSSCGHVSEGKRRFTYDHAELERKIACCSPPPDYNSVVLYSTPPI

[13] = Metabolic stability assessed as 3-((4-(2-hydroxyquinolin-6-yl)-5-(6-methylpyridin-2-yl)-1H-imidazol-2-yl)methyl)benzamide or 3-((4-(3-hydroxyquinolin-6-yl)-5-(6-methylpyridin-2-yl)-1H-imidazol-2-yl)methyl)benzamide levels at 120 uM by HPLC analysis in presence human recombinant CYP2C19; assay type: ADME; settings: recombinant enzyme
[14] = Metabolic stability assessed as 3-((4-(2-hydroxyquinolin-6-yl)-5-(6-methylpyridin-2-yl)-1H-imidazol-2-yl)methyl)benzamide or 3-((4-(3-hydroxyquinolin-6-yl)-5-(6-methylpyridin-2-yl)-1H-imidazol-2-yl)methyl)benzamide levels at 120 uM by HPLC analysis in presence human recombinant CYP2C8; assay type: ADME; settings: recombinant enzyme
[15] = biological target: Mitogen-activated protein kinase 14 (Homo sapiens, UniProt Q16539)
Mitogen-activated protein kinase 14, sequence (Q16539 whole entry): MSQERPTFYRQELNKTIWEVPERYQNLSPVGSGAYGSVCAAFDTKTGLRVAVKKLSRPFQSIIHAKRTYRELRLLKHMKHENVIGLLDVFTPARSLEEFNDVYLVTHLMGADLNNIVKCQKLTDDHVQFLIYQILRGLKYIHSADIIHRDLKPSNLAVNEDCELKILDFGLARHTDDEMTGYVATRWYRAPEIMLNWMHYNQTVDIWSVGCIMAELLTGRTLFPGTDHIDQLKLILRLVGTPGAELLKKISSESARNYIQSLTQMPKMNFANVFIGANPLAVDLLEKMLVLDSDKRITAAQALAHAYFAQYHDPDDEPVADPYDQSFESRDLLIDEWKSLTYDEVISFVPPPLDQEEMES

Stability [2] [peak area]	Stability [3] [peak area]	Stability [4] [peak area]	Stability [5] [peak area]	Compound	solubility [1] [mg/mL]	Stability [6] [peak area]	IC50 [7] [nM]	IC50 [8] [nM]	IC50 [9] [nM]	IC50 [10] [nM]	IC50 [11] [nM]	IC50 [12] [nM]	Stability [13] [peak area]	Stability [14] [peak area]	IC50 [15] [nM]
–	–	–	–	Cc1cccc(-c2[nH]c(Cc3cccc(C#N)c3)nc2-c2ccc3ncccc3c2)n1	7.1 (≈ 17.7 mM)	–	–	–	–	–	–	–	–	–	–
15.4	12.4	17	33.4	Cc1cccc(-c2[nH]c(Cc3cccc(C(N)=O)c3)nc2-c2ccc3nccnc3c2)n1	–	–	–	–	–	–	–	–	–	–	–
–	–	–	–	Cc1cccc(-c2nc(Cc3cccc(C(N)=O)c3)[nH]c2-c2ccc3ncccc3c2)n1	14.3 (≈ 34.1 mM)	10.6	3000	940	650	2200	34	2100	11.3	1.99	540
